Experimental data from patent US20140271766A1 (priority 2013, published 2014).
Where “and” joins values, the source holds several entries; their conditions need not be identical. Identical values can stand only once. Like-named read-outs stand apart in the source and are kept apart here. Marks after values point to notes of the source that are not given here.

Experiments:
[1] = human, in vivo
[2] = human, in vivo; remark: listed apart in the source
[3] = buprenorphine, individual patient

SMILES: CO[C@@]12CC[C@@]3(C[C@@H]1[C@](C)(O)C(C)(C)C)[C@H]1Cc4ccc(O)c5c4[C@@]3(CCN1CC1CC1)[C@H]2O5 [buprenorphine]
- Cave from Day 21 to removal, higher in higher dose group as compared with lower dose group [1]: 93%
- Cmax, average, higher in higher dose group as compared with lower dose group [1]: 62%
- reduction in buprenorphine concentrations from Day 17 to removal [1]: ≤ 50%
- shortest half-life during the plateau phase [1]: 25 weeks
- time to reach plateau phase of buprenorphine concentrations [1]: ≤ 21 days
- Renal clearance [2]: 0.0552 mL/min
- Model predicted concentration at removal ([3]; 2 implants): 263 pg/ml and 342 pg/ml (2×) and 252 pg/ml and 447 pg/ml and 338 pg/ml
- Time from implant to reaching 2x last concentration ([3]; 2 implants): 180 h
- α-Half Life ([3]; 2 implants): 115^b hours
- β-Half Life ([3]; 2 implants): 3578^bc hours
- γ-Half life ([3]; 2 implants): 120 weeks
- Model predicted concentration at removal ([3]; 4 implants): 6.69 pg/mL and 5.33 pg/mL and 5.76 pg/mL and 5.01 pg/mL and 7.78 pg/mL
- Time from implant to reaching 2x last concentration ([3]; 4 implants): 690 h and 710 h
- β-Half Life ([3]; 4 implants): 12.0 h and 16.0 h and 24.0 h
